In article PMC5386260, “Acute development of cortical porosity and endosteal naïve bone formation from the daily but not weekly short-term administration of PTH in rabbit” (PLoS ONE, 2017):
Read-outs that look alike come from different tables or passages of the source.

Columns and labels:
[1] = Plasma TPTD concentration and pharmacokinetics (Rat PTH IRMA Kit, non-compartmental model); format: in vivo, rabbit; details: for level at 2 h / level at 5 min / level at 0.25 h / level at 0.5 h / level at 1 h: female, New Zealand White (Kbl:NZW), rabbit, plasma, sc, IRMA, mean; for AUC / Cmax / Tmax / half-life: in vivo; for half-life: read-out: T1/2 (elimination half-life) of plasma TPTD (converted)
Source text: Seventeen female New Zealand White rabbits (Kbl:NZW) were purchased from Kitayama Labs (Nagano, Japan) and were allowed to acclimatize with free access to water and food for 6 days before use. Throughout the experimental study, the animals were housed individually under a 12-h light/dark cycle with free access to water, but their food intake was restricted to 120g /day (LRC4, standard diet for rabbits; Oriental Yeast, Tokyo, Japan). The animals at 6 months of age were divided into 5 groups and were subcutaneously injected with 20 or 40 μg/kg of TPTD once-daily (D20 group [n = 3] and D40 group [n = 3], 140 or 280 μg/kg of TPTD once-weekly (W140 group [n = 3] and W280 group [n = 4]) for four weeks (Table 1). For the high-dose administration of TPTD, the dosage in once-daily treatment was set at 40 μg/kg/day based on a previous study, while the dosage of once-weekly TPTD treatment was set at 280 μg/kg/week; thus, the cumulative dose of TPTD each week was the same with the two treatment frequencies. In the W140 and W280 groups, saline was administered every day, except for the days on which TPTD was administered. Saline injections were administered to control animals (C group, n = 4) once daily and to each group as a vehicle.
[…] The samples were centrifuged at 1600 x g, at 4°C for 10 minutes and plasma samples were collected in order to measure the concentration of TPTD. […]
Teriparatide acetate was synthesized at Asahi Kasei Pharma Corporation (Tokyo, Japan) and was used as a standard substance. The teriparatide acetate concentration in the rabbit plasma was quantified using a Rat PTH IRMA Kit (Immutopics, Inc., San Clemente, CA) according to the manufacturer’s instructions. The pharmacokinetic parameters were calculated using a non-compartmental model (Phoenix WinNonlin; Pharsight, Mountain View, CA).

endosteal bone collagen = details: rabbit, in vivo
Description: Calcein (Dojindo Laboratories, Kumamoto, Japan) was subcutaneously injected into each animal at a dose of 10 mg/kg body weight on days 13 and 5 before sacrifice for bone double labeling (1-7-1-3). After the dosing period, the animals were euthanized by exsanguination under anesthesia using thiopental. The left and right tibiae were collected for a micro-CT analysis and histomorphometry, respectively. The kidneys, thyroid and parathyroid of all animals were collected and fixed in 10% neutral buffered formalin for a histopathological examination. The left tibiae were packed in plastic bags and stored at -30°C until use in a micro-CT analysis and mechanical testing. […]
An upright multi-photon excited microscopy system (A1RMP, Nikon Corporation, Japan) situated at the Imaging core facility of The Institute of Medical Science, The University of Tokyo was employed to acquire bone collagen-derived SHG signals and two-photon excited auto-fluorescence signals from Calcein-labeled undecalcified bone sections. […] The detection wavelengths were 420–425 nm and 500–550 nm for the acquisition of collagen-derived SHG signals and auto-fluorescence signals from soft tissue, respectively. […]

[2] = 20 ug/kg, rabbit plasma, D20 (20 μg/kg sc once-daily), n=3, mean ± SD
[3] = 40 ug/kg, rabbit plasma, D40 (40 μg/kg sc once-daily), n=3, mean ± SD
[4] = 140 ug/kg, rabbit plasma, W140 (140 μg/kg sc once-weekly), n=3, mean ± SD
[5] = 280 ug/kg, rabbit plasma, W280 (280 μg/kg sc once-weekly), n=4, mean ± SD

level at 2 h ([1]; 140 ug/kg, Day 22, 2 hour, W140 (140 μg/kg sc once-weekly), n=3): 37.8 ng/mL | level at 5 min ([1]; 280 ug/kg, Day 1, 5 min, W280 (280 μg/kg sc once-weekly), n=4): 60.6 ng/mL | level at 0.25 h ([1]; 280 ug/kg, Day 1, 15 min, W280 (280 μg/kg sc once-weekly), n=4): 177 ng/mL | level at 0.5 h ([1]; 280 ug/kg, Day 1, 30 min, W280 (280 μg/kg sc once-weekly), n=4): 295 ng/mL | level at 1 h ([1]; 280 ug/kg, Day 1, 1 hour, W280 (280 μg/kg sc once-weekly), n=4): 255 ng/mL | level at 2 h ([1]; 280 ug/kg, Day 1, 2 hour, W280 (280 μg/kg sc once-weekly), n=4): 87.4 ng/mL | level at 5 min ([1]; 280 ug/kg, Day 22, 5 min, W280 (280 μg/kg sc once-weekly), n=4): 67.7 ng/mL | level at 0.25 h ([1]; 280 ug/kg, Day 22, 15 min, W280 (280 μg/kg sc once-weekly), n=4): 232 ng/mL | level at 0.5 h ([1]; 280 ug/kg, Day 22, 30 min, W280 (280 μg/kg sc once-weekly), n=4): 356 ng/mL | level at 1 h ([1]; 280 ug/kg, Day 22, 1 hour, W280 (280 μg/kg sc once-weekly), n=4): 280 ng/mL | level at 2 h ([1]; 280 ug/kg, Day 22, 2 hour, W280 (280 μg/kg sc once-weekly), n=4): 62.4 ng/mL | AUC [1, 2]: 21.1 ± 3.67 ng·h/mL | Cmax [1, 2]: 19.8 ± 5.67 ng/mL | Tmax [1, 2]: 30 min | half-life ([1]; 20 ug/kg, rabbit plasma, D20 (20 μg/kg sc once-daily), n=3, non-compartmental, mean ± SD): 26.4 ± 9 min | AUC [1, 3]: 46.8 ± 10.7 ng·h/mL | Cmax [1, 3]: 34.3 ± 8.19 ng/mL | Tmax [1, 3]: 30 min | half-life ([1]; 40 ug/kg, rabbit plasma, D40 (40 μg/kg sc once-daily), n=3, non-compartmental, mean ± SD): 55.8 ± 19.2 min | AUC [1, 4]: 188 ± 35.5 ng·h/mL | Cmax [1, 4]: 133 ± 28 ng/mL | Tmax [1, 4]: 40.2 ± 17.4 min | half-life ([1]; 140 ug/kg, rabbit plasma, W140 (140 μg/kg sc once-weekly), n=3, non-compartmental, mean ± SD): 55.8 ± 9.6 min | AUC [1, 5]: 390 ± 75.6 ng·h/mL | Cmax [1, 5]: 315 ± 67.8 ng/mL | Tmax [1, 5]: 45 ± 17.4 min | half-life ([1]; 280 ug/kg, rabbit plasma, W280 (280 μg/kg sc once-weekly), n=4, non-compartmental, mean ± SD): 41.4 ± 16.2 min | Tmax post-dose ([1]; rabbit plasma, D20 (20 μg/kg sc once-daily)): 30 min | Tmax post-dose ([1]; rabbit plasma, D40 (40 μg/kg sc once-daily)): 30 min | estimated Tmax post-dose ([1]; rabbit plasma, W140 (140 μg/kg sc once-weekly)): 40 min | T1/2 (elimination half-life) of plasma TPTD ([1]; rabbit plasma, W140 (140 μg/kg sc once-weekly), n=3, non-compartmental, mean ± SD): 55.8 ± 9.6 min | estimated Tmax post-dose ([1]; rabbit plasma, W280 (280 μg/kg sc once-weekly)): 45 min | endosteal bone collagen pattern (3D-SHG) (endosteal bone collagen): amorphously short fibers
SMILES: CC[C@H](C)[C@H](NC(=O)[C@H](CCC(=O)O)NC(=O)[C@H](CO)NC(=O)[C@@H](NC(=O)[C@@H](N)CO)C(C)C)C(=O)N[C@@H](CCC(N)=O)C(=O)N[C@@H](CC(C)C)C(=O)N[C@@H](CCSC)C(=O)N[C@@H](Cc1cnc[nH]1)C(=O)N[C@@H](CC(N)=O)C(=O)N[C@@H](CC(C)C)C(=O)NCC(=O)N[C@@H](CCCCN)C(=O)N[C@@H](Cc1cnc[nH]1)C(=O)N[C@@H](CC(C)C)C(=O)N[C@@H](CC(N)=O)C(=O)N[C@@H](CO)C(=O)N[C@@H](CCSC)C(=O)N[C@@H](CCC(=O)O)C(=O)N[C@@H](CCCN=C(N)N)C(=O)N[C@H](C(=O)N[C@@H](CCC(=O)O)C(=O)N[C@@H](Cc1c[nH]c2ccccc12)C(=O)N[C@@H](CC(C)C)C(=O)N[C@@H](CCCN=C(N)N)C(=O)N[C@@H](CCCCN)C(=O)N[C@@H](CCCCN)C(=O)N[C@@H](CC(C)C)C(=O)N[C@@H](CCC(N)=O)C(=O)N[C@@H](CC(=O)O)C(=O)N[C@H](C(=O)N[C@@H](Cc1cnc[nH]1)C(=O)N[C@@H](CC(N)=O)C(=O)N[C@@H](Cc1ccccc1)C(=O)O)C(C)C)C(C)C [TPTD, Teriparatide]
